Experimental data published in PubChem BioAssay (NCI).
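Five concentrations, 48 hours, 96-well plates. TGI: total growth inhibition.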

Assays:
Experiment in all cases: NCI-60 cell line screen, 48 h
CCRF-CEM leukemia = test system: CCRF-CEM leukemia
COLO 205 colon = test system: COLO 205 colon
EKVX NSCLC = test system: EKVX NSCLC
HCT-116 colon = test system: HCT-116 colon
IGROV1 ovarian = test system: IGROV1 ovarian
MDA-MB-435 = test system: MDA-MB-435
NCI/ADR-RES ovarian = test system: NCI/ADR-RES ovarian
OVCAR-3 ovarian = test system: OVCAR-3 ovarian
OVCAR-5 ovarian = test system: OVCAR-5 ovarian
PC-3 prostate = test system: PC-3 prostate
SF-268 CNS = test system: SF-268 CNS
SK-MEL-28 melanoma = test system: SK-MEL-28 melanoma
SNB-19 CNS = test system: SNB-19 CNS
SW-620 colon = test system: SW-620 colon
TK-10 renal = test system: TK-10 renal
UACC-257 melanoma = test system: UACC-257 melanoma
UACC-62 melanoma = test system: UACC-62 melanoma
NCI-H226 lung = test system: NCI-H226 lung
NCI-H460 lung = test system: NCI-H460 lung

Row | SMILES | TGI (CCRF-CEM leukemia) [µM] | TGI (COLO 205 colon) [µM] | TGI (EKVX NSCLC) [µM] | TGI (HCT-116 colon) [µM] | TGI (IGROV1 ovarian) [µM] | TGI (MDA-MB-435) [µM] | TGI (NCI/ADR-RES ovarian) [µM] | TGI (OVCAR-3 ovarian) [µM] | TGI (OVCAR-5 ovarian) [µM] | TGI (PC-3 prostate) [µM] | TGI (SF-268 CNS) [µM] | TGI (SK-MEL-28 melanoma) [µM] | TGI (SNB-19 CNS) [µM] | TGI (SW-620 colon) [µM] | TGI (TK-10 renal) [µM] | TGI (UACC-257 melanoma) [µM] | TGI (UACC-62 melanoma) [µM] | TGI (NCI-H226 lung) [µM] | TGI (NCI-H460 lung) [µM]
1 | O=C(O)C1CCCCC1C(=O)Nn1cnnc1 (stereo not given) | > 100 | > 100 | > 100 | > 100 | > 100 | > 100 | > 100 | > 100 | > 100 | > 100 | > 100 | > 100 | > 100 | > 100 | > 100 | > 100 | > 100 | – | –
2 | Clc1nssc1=Nc1nonc1-c1ccccc1 | 90.8 | 36.7 | > 100 | > 100 | 82 | > 100 | 98.3 | > 100 | 49.3 | > 100 | – | > 100 | > 100 | > 100 | – | > 100 | > 100 | > 100 | > 100
3 | O=S(=O)(c1ccccc1)C(c1ccc2ccccc2n1)S(=O)(=O)c1ccccc1 | – | > 100 | > 100 | > 100 | > 100 | – | > 100 | > 100 | > 100 | > 100 | > 100 | > 100 | > 100 | > 100 | > 100 | > 100 | – | > 100 | > 100
4 | Cc1n[nH]c(=O)n1/N=C/c1ccc(F)cc1 | > 100 | > 100 | > 100 | > 100 | – | > 100 | > 100 | > 100 | > 100 | – | > 100 | > 100 | > 100 | > 100 | – | > 100 | > 100 | – | > 100
5 | COc1ccc(S(=O)(=O)NC(CCC(=O)NN)C(=O)NN)cc1 (stereo not given) | > 100 | > 100 | > 100 | > 100 | > 100 | > 100 | > 100 | > 100 | > 100 | > 100 | – | > 100 | > 100 | > 100 | > 100 | > 100 | > 100 | – | > 100
6 | Nc1nc2c(c(=O)[nH]1)C(c1ccccc1)CC(=O)N2 (stereo not given) | – | > 100 | > 100 | > 100 | > 100 | > 100 | > 100 | > 100 | > 100 | > 100 | > 100 | > 100 | > 100 | > 100 | > 100 | > 100 | > 100 | > 100 | > 100
7 | Clc1ccc(OCc2nnc(CCCCCCCCc3nnc(COc4ccc(Cl)cc4Cl)n3Nc3ccccc3)n2Nc2ccccc2)c(Cl)c1 | – | 3.38 | > 68.3 | 25.1 | 47.7 | 19.5 | 51.8 | 25.4 | 43.9 | 34.8 | 32.1 | 19 | > 61.9 | > 62.6 | > 75.1 | 36.2 | 15.7 | 38 | 21.1
8 | CN=c1c2c(c3[nH]c4ccccc4c4cnc1c34)NCCC2=O | > 10 | > 10 | > 10 | > 10 | > 10 | > 10 | > 10 | > 10 | > 10 | > 10 | > 10 | > 10 | > 10 | > 10 | > 10 | > 10 | – | > 10 | > 10
9 | CC(C)(Oc1ccccc1)C(=O)Sc1c(-c2ccccc2)c(=O)n(-c2ccccc2)c(=S)n1-c1ccccc1 | > 100 | > 100 | > 100 | > 100 | 47.6 | 52.4 | > 100 | 96.4 | > 100 | – | 80.2 | > 100 | > 100 | > 100 | > 100 | > 100 | > 100 | > 100 | 67.3
10 | O=C1/C(=C/c2ccc(OC(=O)c3ccccc3)cc2)CCC/C1=C\c1ccc(OC(=O)c2ccccc2)cc1 | > 100 | > 100 | > 100 | > 100 | > 100 | > 100 | > 100 | > 100 | > 100 | > 100 | > 100 | > 100 | > 100 | > 100 | > 100 | > 100 | > 100 | – | > 100
11 | COc1cc(S(=O)(=O)Nc2nc(-c3ccc(N4C(=O)/C(=C/C=C/c5ccccc5)N=C4c4ccccc4)cc3)cs2)ccc1Cl | > 100 | > 100 | – | > 100 | > 100 | > 100 | > 100 | > 100 | > 100 | > 100 | > 100 | > 100 | > 100 | > 100 | > 100 | > 100 | > 100 | > 100 | > 100
12 | Nc1nc(N)c2cc(-c3ccccc3)cnc2n1 | 98.3 | 27.3 | 45.1 | 17.3 | 26.8 | – | > 100 | 35.8 | 27.7 | 20.6 | 8.78 | 35 | 38.3 | 22.9 | 29.9 | 30.6 | – | 33.1 | 24.3
13 | CC12CCC(C(Nc3cc(C(F)(F)F)cc(C(F)(F)F)c3)C1=O)C2(C)C (stereo not given) | – | > 100 | > 100 | > 100 | > 100 | > 100 | > 100 | > 100 | > 100 | > 100 | > 100 | > 100 | > 100 | > 100 | > 100 | > 100 | > 100 | > 100 | > 100
